Columns and labels:
ΔF508-CFTR [1] = molecular target: T1, ΔF508-CFTR (Homo sapiens, UniProt P13569, DEL508-508); assay: CFTR cell surface levels using HRP-tagged ΔF508-CFTR expressing CFBE cells, in the presence of a co-corrector; assay type: cell-based
T1 construct: host or cells: CFBE41o-, doxycycline-inducible
How it was run: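 Chemiluminescent read-out of surface HRP (15 min, dark) after PBS washes. Activity is normalized as 100×(sample−DMSO)/(3 μM co-corrector alone−DMSO).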

ΔF508-CFTR [2] = molecular target: T1, ΔF508-CFTR; assay: CFTR cell surface levels using HRP-tagged ΔF508-CFTR expressing CFBE cells, intrinsic corrector capacity; assay type: cell-based; design: % Activation: concentration or dose not given beside the values
How it was run: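 Surface ΔF508-CFTR was measured as HRP chemiluminescence from an extracellular-loop-4 tag, expressed as percent activity between DMSO and a […] corrector control.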

[3] = HRP-tagged ΔF508-CFTR CFBE cells, in the presence of 3 μM co-corrector
[4] = HRP-tagged ΔF508-CFTR CFBE cells, in the presence of 3 μM co-corrector, read-out: EC50
[5] = HRP-tagged ΔF508-CFTR expressing CFBE41o- cells, compound alone (intrinsic corrector capacity), 20 hours at 33° C.
[6] = HRP-tagged ΔF508-CFTR expressing CFBE41o- cells, compound alone (intrinsic corrector capacity), 20 hours at 33° C., read-out: EC50

T1 sequence (P13569 with tags, fused parts or gaps DEL508-508): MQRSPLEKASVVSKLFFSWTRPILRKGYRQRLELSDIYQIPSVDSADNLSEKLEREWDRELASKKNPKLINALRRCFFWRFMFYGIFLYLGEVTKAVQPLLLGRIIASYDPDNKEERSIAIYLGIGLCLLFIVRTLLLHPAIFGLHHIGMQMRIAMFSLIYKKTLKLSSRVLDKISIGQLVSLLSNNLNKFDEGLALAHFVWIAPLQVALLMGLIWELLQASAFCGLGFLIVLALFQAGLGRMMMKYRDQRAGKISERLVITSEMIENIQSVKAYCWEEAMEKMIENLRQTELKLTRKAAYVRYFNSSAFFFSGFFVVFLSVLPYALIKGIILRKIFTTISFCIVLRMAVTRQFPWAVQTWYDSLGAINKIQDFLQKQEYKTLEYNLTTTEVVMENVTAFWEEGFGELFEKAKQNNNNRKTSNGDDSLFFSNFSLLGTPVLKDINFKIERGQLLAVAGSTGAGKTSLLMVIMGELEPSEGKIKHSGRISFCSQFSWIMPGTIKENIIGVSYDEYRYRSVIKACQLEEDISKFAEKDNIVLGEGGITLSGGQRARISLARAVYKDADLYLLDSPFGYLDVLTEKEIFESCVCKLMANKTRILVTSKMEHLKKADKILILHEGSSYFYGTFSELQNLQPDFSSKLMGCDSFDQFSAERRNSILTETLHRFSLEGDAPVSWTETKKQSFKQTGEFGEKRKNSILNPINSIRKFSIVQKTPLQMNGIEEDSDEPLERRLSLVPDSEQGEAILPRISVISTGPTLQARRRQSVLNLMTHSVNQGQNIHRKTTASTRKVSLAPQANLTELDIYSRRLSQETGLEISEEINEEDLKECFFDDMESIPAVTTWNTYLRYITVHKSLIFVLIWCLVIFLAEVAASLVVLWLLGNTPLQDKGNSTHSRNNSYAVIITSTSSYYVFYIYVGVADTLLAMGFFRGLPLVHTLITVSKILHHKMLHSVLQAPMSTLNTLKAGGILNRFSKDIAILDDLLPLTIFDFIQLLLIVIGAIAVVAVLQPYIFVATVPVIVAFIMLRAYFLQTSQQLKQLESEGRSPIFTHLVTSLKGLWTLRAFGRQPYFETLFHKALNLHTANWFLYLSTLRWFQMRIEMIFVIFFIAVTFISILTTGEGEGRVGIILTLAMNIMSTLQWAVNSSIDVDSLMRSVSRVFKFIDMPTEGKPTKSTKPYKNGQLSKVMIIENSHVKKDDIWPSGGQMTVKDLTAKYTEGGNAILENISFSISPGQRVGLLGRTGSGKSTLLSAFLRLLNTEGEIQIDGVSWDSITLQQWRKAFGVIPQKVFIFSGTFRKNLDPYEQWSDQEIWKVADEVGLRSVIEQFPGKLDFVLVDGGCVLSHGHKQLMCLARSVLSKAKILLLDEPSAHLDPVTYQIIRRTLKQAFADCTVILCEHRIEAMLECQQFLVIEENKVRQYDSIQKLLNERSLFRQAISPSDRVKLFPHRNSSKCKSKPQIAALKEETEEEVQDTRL

SMILES | % Activation (ΔF508-CFTR [1]; [3]) [%] | EC50 (ΔF508-CFTR [1]; [4]) [nM] | % Activation (ΔF508-CFTR [2]; [5]) [%] | EC50 (ΔF508-CFTR [2]; [6]) [nM] | EC50 (ΔF508-CFTR [1]) [nM] | EC50 (ΔF508-CFTR [2]) [nM]
COCC1CCN(c2cc(C(=O)NS(=O)(=O)N3CCC(N4CCC[C@@H]4COC)CC3)nc3c2c(C2CCC2)nn3-c2ccccc2)CC1 [Compound 395, 3-cyclobutyl-4-[4-(methoxymethyl)piperidin-1-yl]-N-{4-[(2R)-2-(methoxymethyl)pyrrolidin-1-yl]piperidine-1-sulfonyl}-1-phenyl-1H-pyrazolo[3,4-b]pyridine-6-carboxamide] | 327.95 | 127 | 209.2 | 474 |  | 
COCC1CCN(c2cc(C(=O)NS(=O)(=O)N3CCC(C(=O)N4CCN(C)CC4)CC3)nc3c2c(C2CCC2)nn3-c2ccccc2)CC1 [Compound 398, 3-cyclobutyl-4-[4-(methoxymethyl)piperidin-1-yl]-N-[4-(4-methylpiperazine-1-carbonyl)piperidine-1-sulfonyl]-1-phenyl-1H-pyrazolo[3,4-b]pyridine-6-carboxamide] | 324.03 | 73.6 | 173.7 | 181 |  | 
COCC1CCN(c2cc(C(=O)NS(=O)(=O)C3CC3)nc3c2c(C2CCC2)nn3-c2ccccc2)CC1 [Compound 401, 3-cyclobutyl-N-(cyclopropanesulfonyl)-4-[4-(methoxymethyl)piperidin-1-yl]-1-phenyl-1H-pyrazolo[3,4-b]pyridine-6-carboxamide] | 595.1 | 62 | 400.8 | 104 |  | 
CCS(=O)(=O)NC(=O)c1cc(N2CCC(COC)CC2)c2c(C3CCC3)nn(-c3ccccc3)c2n1 [Compound 403, 3-cyclobutyl-N-(ethanesulfonyl)-4-[4-(methoxymethyl)piperidin-1-yl]-1-phenyl-1H-pyrazolo[3,4-b]pyridine-6-carboxamide] | 507.35 | 25.6 | 389.2 | 30.2 |  | 
COCCS(=O)(=O)NC(=O)c1cc(N2CCC(N3CCOCC3)CC2)c2c(C3CCC3)nn(C3CCCCC3)c2n1 [Compound 419, 3-cyclobutyl-1-cyclohexyl-N-(2-methoxyethanesulfonyl)-4-[4-(morpholin-4-yl)piperidin-1-yl]-1H-pyrazolo[3,4-b]pyridine-6-carboxamide] | 505.65 | 277 | 293 | 448 |  | 
CN(C)S(=O)(=O)NC(=O)c1cc(N2CCC(CCN3CCOCC3)CC2)c2c(C3CCC3)nn(C3CCCCC3)c2n1 [Compound 425, 3-cyclobutyl-1-cyclohexyl-N-(dimethylsulfamoyl)-4-{4-[2-(morpholin-4-yl)ethyl]piperidin-1-yl}-1H-pyrazolo[3,4-b]pyridine-6-carboxamide] | 462.85 | 166 | 280.2 | 277 |  | 
CN(C)S(=O)(=O)NC(=O)c1cc(N2CCC(N3CCCCC3)CC2)c2c(C3CCC3)nn(-c3ccccc3)c2n1 [Compound 426, 4-([1,4′-bipiperidin]-1′-yl)-3-cyclobutyl-N-(dimethylsulfamoyl)-1-phenyl-1H-pyrazolo[3,4-b]pyridine-6-carboxamide] | 385.3 |  | 143.7 |  | 82 | 302
COCC1CCN(c2cc(C(=O)NS(C)(=O)=O)nc3c2c(C2CCC2)nn3-c2ccnc(C)c2)CC1 [Compound 430, 3-cyclobutyl-N-(methanesulfonyl)-4-[4-(methoxymethyl)piperidin-1-yl]-1-(2-methylpyridin-4-yl)-1H-pyrazolo[3,4-b]pyridine-6-carboxamide] | 383.7 | 89.9 | 170.05 | 231 |  | 
CCCN(C)S(=O)(=O)NC(=O)c1cc(N2CCC(N3CCOCC3)CC2)c2c(C3CCC3)nn(-c3ccccc3)c2n1 [Compound 432, 3-cyclobutyl-N-[methyl(propyl)sulfamoyl]-4-[4-(morpholin-4-yl)piperidin-1-yl]-1-phenyl-1H-pyrazolo[3,4-b]pyridine-6-carboxamide] | 514.83 | 65.9 | 243.6 | 119 |  | 
CCOC(=O)N1CCC(NS(=O)(=O)NC(=O)c2cc(N3CCC(N4CCOCC4)CC3)c3c(C4CCC4)nn(-c4ccccc4)c3n2)CC1 [Compound 433, ethyl 4-[({3-cyclobutyl-4-[4-(morpholin-4-yl)piperidin-1-yl]-1-phenyl-1H-pyrazolo[3,4-b]pyridine-6-carbonyl}sulfamoyl)amino]piperidine-1-carboxylate] | 563.8 | 49 | 361.5 | 96.5 |  | 
O=C(NS(=O)(=O)N1CCC(F)CC1)c1cc(N2CCC(N3CCOCC3)CC2)c2c(C3CCC3)nn(-c3ccccc3)c2n1 [Compound 434, 3-cyclobutyl-N-(4-fluoropiperidine-1-sulfonyl)-4-[4-(morpholin-4-yl)piperidin-1-yl]-1-phenyl-1H-pyrazolo[3,4-b]pyridine-6-carboxamide] | 470.37 | 59.5 | 245.2 | 57.7 |  | 
CC1(S(=O)(=O)NC(=O)c2cc(N3CCC(N4CCOCC4)CC3)c3c(C4CCC4)nn(-c4ccccc4)c3n2)CC1 [Compound 435, 3-cyclobutyl-N-(1-methylcyclopropane-1-sulfonyl)-4-[4-(morpholin-4-yl)piperidin-1-yl]-1-phenyl-1H-pyrazolo[3,4-b]pyridine-6-carboxamide] | 474.8 | 82.8 | 269.9 | 136 |  | 
O=C(NS(=O)(=O)C1CC1)c1cc(N2CCC(N3CCOCC3)CC2)c2c(C3CCC3)nn(-c3ccccc3)c2n1 [Compound 436, 3-cyclobutyl-N-(cyclopropanesulfonyl)-4-[4-(morpholin-4-yl)piperidin-1-yl]-1-phenyl-1H-pyrazolo[3,4-b]pyridine-6-carboxamide] | 568.6 | 71.1 | 393.3 | 344 |  | 
CCS(=O)(=O)NC(=O)c1cc(N2CCC(N3CCOCC3)CC2)c2c(C3CCC3)nn(-c3ccccc3)c2n1 [Compound 437, 3-cyclobutyl-N-(ethanesulfonyl)-4-[4-(morpholin-4-yl)piperidin-1-yl]-1-phenyl-1H-pyrazolo[3,4-b]pyridine-6-carboxamide] | 563.64 |  | 353.8 |  |  | 
COCCS(=O)(=O)NC(=O)c1cc(N2CCC(N3CCOCC3)CC2)c2c(C3CCC3)nn(-c3ccccc3)c2n1 [Compound 438, 3-cyclobutyl-N-(2-methoxyethanesulfonyl)-4-[4-(morpholin-4-yl)piperidin-1-yl]-1-phenyl-1H-pyrazolo[3,4-b]pyridine-6-carboxamide] | 541.5 | 380 | 337 | 392 |  | 
COC[C@@H]1CCCN1C1CCN(S(=O)(=O)NC(=O)c2cc(N3CCC(N4CCOCC4)CC3)c3c(C4CCC4)nn(-c4ccccc4)c3n2)CC1 [Compound 439, 3-cyclobutyl-N-{4-[(2S)-2-(methoxymethyl)pyrrolidin-1-yl]piperidine-1-sulfonyl}-4-[4-(morpholin-4-yl)piperidin-1-yl]-1-phenyl-1H-pyrazolo[3,4-b]pyridine-6-carboxamide] | 374.6 | 381 | 166.8 | 550 |  | 
CC(C)Oc1nn(C2CCCCC2)c2nc(C(=O)NS(=O)(=O)N(C)C)cc(-c3ccc(CN4CCN(C)CC4)cc3)c12 [Compound 442, 1-cyclohexyl-N-(dimethylsulfamoyl)-4-{4-[(4-methylpiperazin-1-yl)methyl]phenyl}-3-[(propan-2-yl)oxy]-1H-pyrazolo[3,4-b]pyridine-6-carboxamide] | 342 | 1110 | 146.8 | 307 |  | 
CC(C)Oc1nn(C2CCCCC2)c2nc(C(=O)NS(=O)(=O)N(C)C)cc(-c3ccc(CN4CCCC4)cc3)c12 [Compound 444, 1-cyclohexyl-N-(dimethylsulfamoyl)-3-[(propan-2-yl)oxy]-4-{4-[(pyrrolidin-1-yl)methyl]phenyl}-1H-pyrazolo[3,4-b]pyridine-6-carboxamide] | 361.3 | 235 | 162.5 | 345 |  | 
CS(=O)(=O)NC(=O)c1cc(N2CCC(N3CCCCC3)CC2)c2c(C3CCC3)nn(-c3ccc(F)cc3)c2n1 [Compound 450, 4-([1,4'-bipiperidin]-1'-yl)-3-cyclobutyl-1-(4-fluorophenyl)-N-(methanesulfonyl)-1H-pyrazolo[3,4-b]pyridine-6-carboxamide] | 443.25 | 246 | 253.5 | 617 |  | 
O=C(NS(=O)(=O)C1CCOC1)c1cc(N2CCC(N3CCCCC3)CC2)c2c(C3CCC3)nn(-c3ccc(F)cc3)c2n1 (stereo not shown) [Compound 451, 4-([1,4'-bipiperidin]-1'-yl)-3-cyclobutyl-1-(4-fluorophenyl)-N-(oxolane-3-sulfonyl)-1H-pyrazolo[3,4-b]pyridine-6-carboxamide] | 391 | 2100 | 184.1 | 1700 |  | 
O=C(NS(=O)(=O)C1CCOC1)c1cc(N2CCC(CCN3CCOCC3)CC2)c2c(C3CCC3)nn(-c3ccc(F)cc3)c2n1 (stereo not shown) [Compound 452, 3-cyclobutyl-1-(4-fluorophenyl)-4-{4-[2-(morpholin-4-yl)ethyl]piperidin-1-yl}-N-(oxolane-3-sulfonyl)-1H-pyrazolo[3,4-b]pyridine-6-carboxamide] | 478.25 | 942 | 239.8 | 408 |  | 

Reference: US10259810B2, “N-sulfonylated pyrazolo[3,4-b]pyridin-6-carboxamides and method of use” (AbbVie S.à.r.l., priority 2015, dated 2019)
